Biological target: T1, REV-ERBα LBD (human; residues 281-614 Δ324-422) (Homo sapiens, UniProt P20393, DEL324-422)
T1 construct: 6×Histag-REV-ERBα LBD (human; residues 281-614 Δ324-422); made in house; host or cells: Escherichia coli
Assay: TR-FRET corepressor interaction assay (REV-ERBα LBD, FITC-SMRT peptide)
Assay type: biochemical
Conditions: Table 2, read-out: REVERBα agonism (EC50 class, FRET assay)
Procedure, shortened: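 Compound serial dilutions (in DMSO, triplicate) incubated 2 h at 4 °C; Tb donor excited at 340 nm, emission read at 495 nm and FITC acceptor at 520 nm. TR-FRET ratio (520/495 nm) plotted against ligand concentration and fitted to a sigmoidal dose-response curve.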

T1 sequence (P20393 with tags, fused parts or gaps DEL324-422): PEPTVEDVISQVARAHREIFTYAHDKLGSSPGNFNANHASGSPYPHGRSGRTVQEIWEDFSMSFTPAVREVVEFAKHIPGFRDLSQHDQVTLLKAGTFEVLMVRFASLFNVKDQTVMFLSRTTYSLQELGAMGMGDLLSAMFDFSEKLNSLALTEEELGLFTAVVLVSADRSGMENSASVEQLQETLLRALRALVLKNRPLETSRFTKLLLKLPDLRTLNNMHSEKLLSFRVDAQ
T1 sequence (Q9Y618 2335-2356 partner limits assumed): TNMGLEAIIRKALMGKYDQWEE

| Compound | EC50 |
| --- | --- |
| CC(C)(C)Cc1cn(CCNS(=O)(=O)C2CC2)c2ccc(-c3ccccc3)cc12 [Example 225, N-(2-(3-neopentyl-5-phenyl-1H-indol-1-yl)ethyl)cyclopropanesulfonamide] | 500 to 3000 nM |
| CC(C)(C)Cc1cn(CCNS(=O)(=O)C2CC2)c2cc(F)c(Br)cc12 [Example 293, N-(2-(5-bromo-6-fluoro-3-neopentyl-1H-indol-1-yl)ethyl)cyclopropanesulfonamide] | > 3000 nM |
| Cc1ccccc1-c1ccc2c(c1)c(CC(C)(C)C)cn2CCNS(=O)(=O)C1CC1 [Example 302, N-(2-(3-neopentyl-5-(o-tolyl)-1H-indol-1-yl)ethyl)cyclopropanesulfonamide] | < 500 nM |
| CC(C)(C)Cc1cn(CCNS(=O)(=O)C2CC2)c2ccc(-c3ccccn3)cc12 [Example 304, N-(2-(3-neopentyl-5-(pyridin-2-yl)-1H-indol-1-yl)ethyl)cyclopropanesulfonamide] | 500 to 3000 nM |
| CC(C)Cn1cc([C@H](NS(=O)(=O)C2CC2)C(F)(F)F)c2ccc(Br)cc21 [Example 306, (S)—N-(1-(6-bromo-1-isobutyl-1H-indol-3-yl)-2,2,2-trifluoroethyl)cyclopropanesulfonamide] | < 500 nM |
| CC(C)Cn1cc([C@H](NS(=O)(=O)C2CC2)C(F)(F)F)c2ccc(-c3ccc(F)cc3)cc21 [Example 308, (S)—N-(2,2,2-trifluoro-1-(6-(4-fluorophenyl)-1-isobutyl-1H-indol-3-yl)ethyl)cyclopropanesulfonamide] | 500 to 3000 nM |
| CC(C)Cn1cc([C@H](NS(=O)(=O)C2CC2)C(F)(F)F)c2cc(F)c(C3CC3)cc21 [Example 315, (S)—N-(1-(6-cyclopropyl-5-fluoro-1-isobutyl-1H-indol-3-yl)-2,2,2-trifluoroethyl)cyclopropanesulfonamide] | < 500 nM |
| CC(C)(C)Cn1cc([C@H](NS(=O)(=O)C2CC2)C(F)(F)F)c2cc(F)c(-c3ccccc3C(F)(F)F)cc21 [Example 319, (S)—N-(2,2,2-trifluoro-1-(5-fluoro-1-neopentyl-6-(2-(trifluoromethyl)phenyl)-1H-indol-3-yl)ethyl)cyclopropanesulfonamide] | < 500 nM |
| CC(C)Cn1cc([C@H](NS(=O)(=O)N(C)C)C(F)(F)F)c2cc(F)c(-c3ccccc3C(F)(F)F)cc21 [Example 320, dimethyl({[(1S)-2,2,2-trifluoro-1-[5-fluoro-1-(2-methylpropyl)-6-[2-(trifluoromethyl)phenyl]-1H-indol-3-yl]ethyl]sulfamoyl})amine] | < 500 nM |
| CC(C)Cn1cc([C@H](NS(=O)(=O)C2CC2)C(F)(F)F)c2ccc(-c3ccc(F)cc3C(F)(F)F)cc21 [Example 324, (S)—N-(2,2,2-trifluoro-1-(6-(4-fluoro-2-(trifluoromethyl)phenyl)-1-isobutyl-1H-indol-3-yl)ethyl)cyclopropanesulfonamide] | < 500 nM |
| CC(C)(C)Cn1cc([C@H](NS(=O)(=O)C2CC2)C(F)(F)F)c2ccc(-c3ccccc3Cl)cc21 [Example 332, (S)—N-(1-(6-(2-chlorophenyl)-1-neopentyl-1H-indol-3-yl)-2,2,2-trifluoroethyl)cyclopropanesulfonamide] | < 500 nM |
| CC(C)Cn1cc([C@H](NS(=O)(=O)C2CC2)C(F)(F)F)c2cc(F)c(C(C)C)cc21 [Example 334, (S)—N-(2,2,2-trifluoro-1-(5-fluoro-1-isobutyl-6-isopropyl-1H-indol-3-yl)ethyl)cyclopropanesulfonamide] | 500 to 3000 nM |
| CC(C)(C)Cn1cc([C@H](NS(=O)(=O)C2CC2)C(F)(F)F)c2ccc(Br)cc21 [Example 343, (S)—N-(1-(6-bromo-1-neopentyl-1H-indol-3-yl)-2,2,2-trifluoroethyl)cyclopropanesulfonamide] | < 500 nM |
| CC(C)(C)Cn1cc([C@H](NS(=O)(=O)N2CCC2)C(F)(F)F)c2cc(F)c(-c3ccccc3C(F)(F)F)cc21 [Example 346, (S)—N-(2,2,2-trifluoro-1-(5-fluoro-1-neopentyl-6-(2-(trifluoromethyl)phenyl)-1H-indol-3-yl)ethyl)azetidine-1-sulfonamide] | < 500 nM |

Further lines, results first:

| EC50 | Compound |
| --- | --- |
| < 500 nM | CC(C)(C)Cc1cn(CCNS(=O)(=O)C2CC2)c2ccc(-c3cccc(F)c3Cl)cc12 [Example 228, N-(2-(5-(2-chloro-3-fluorophenyl)-3-neopentyl-1H-indol-1-yl)ethyl)cyclopropane sulfonamide] |
| < 500 nM | CC(C)(C)Cc1cn(CCNS(=O)(=O)C2CC2)c2ccc(-c3ccc(N)c(F)c3Cl)cc12 [Example 229, N-(2-(5-(4-amino-2-chloro-3-fluorophenyl)-3-neopentyl-1H-indol-1-yl)ethyl) cyclo-propanesulfonamide] |
| 500 to 3000 nM | CC(C)(C)Cc1cn(CCNS(=O)(=O)C2CC2)c2ccc(C(F)(F)F)cc12 [Example 292, N-(2-(3-neopentyl-5-(trifluoromethyl)-1H-indol-1-yl)ethyl)cyclopropanesulfonamide] |
| < 500 nM | CC(C)(C)Cc1cn(CCNS(=O)(=O)C2CC2)c2cc(F)c(-c3ccc(F)cc3C(F)(F)F)cc12 [Example 294] |
| 500 to 3000 nM | CC(C)(C)Cc1cn(CCNS(=O)(=O)C2CC2)c2ccc(-c3ccc(F)cc3C(F)(F)F)c(F)c12 [Example 295] |
| < 500 nM | COc1ccccc1-c1ccc2c(c1)c(CC(C)(C)C)cn2CCNS(=O)(=O)C1CC1 [Example 303, N-(2-(5-(2-methoxyphenyl)-3-neopentyl-1H-indol-1-yl)ethyl)cyclopropane-sulfonamide] |
| 500 to 3000 nM | CC(C)(C)Cc1cn(CCNS(=O)(=O)C2CC2)c2ccc(-c3cccnc3)cc12 [Example 305, N-(2-(3-neopentyl-5-(pyridin-3-yl)-1H-indol-1-yl)ethyl)cyclopropanesulfonamide] |
| < 500 nM | CC(C)Cn1cc([C@H](NS(=O)(=O)C2CC2)C(F)(F)F)c2ccc(-c3ccncc3)cc21 [Example 307, (S)—N-(2,2,2-trifluoro-1-(1-isobutyl-6-(pyridin-4-yl)-1H-indol-3-yl)ethyl)cyclopropanesulfonamide] |
| < 500 nM | CC(C)Cn1cc([C@H](NS(=O)(=O)C2CC2)C(F)(F)F)c2ccc(-c3ccccc3Cl)cc21 [Example 311, (S)—N-(1-(6-(2-chlorophenyl)-1-isobutyl-1H-indol-3-yl)-2,2,2-trifluoroethyl)cyclopropanesulfonamide] |
| < 500 nM | Cc1cc2c(cc1F)c([C@H](NS(=O)(=O)C1CC1)C(F)(F)F)cn2CC(C)C [Example 312, (S)—N-(2,2,2-trifluoro-1-(5-fluoro-1-isobutyl-6-methyl-1H-indol-3-yl)ethyl)cyclopropanesulfonamide] |
| < 500 nM | CC(C)Cn1cc([C@H](NS(=O)(=O)C2CC2)C(F)(F)F)c2cc(F)c(-c3ccccc3Cl)cc21 [Example 314, (S)—N-(1-(6-(2-chlorophenyl)-5-fluoro-1-isobutyl-1H-indol-3-yl)-2,2,2-trifluoroethyl)cyclopropanesulfonamide] |
| < 500 nM | CC(C)Cn1cc([C@H](NS(=O)(=O)C2CC2)C(F)(F)F)c2ccc(-c3ccccc3C(F)(F)F)cc21 [Example 325] |
| < 500 nM | CC(C)Cn1cc([C@H](NS(=O)(=O)N(C)C)C(F)(F)F)c2cc(F)c(-c3ccccc3Cl)cc21 [Example 326, {[(1S)-1-[6-(2-chlorophenyl)-5-fluoro-1-(2-methylpropyl)-1H-indol-3-yl]-2,2,2-trifluoroethyl]sulfamoyl}dimethylamine] |
| < 500 nM | CC(C)(C)Cn1cc([C@H](NS(=O)(=O)C2CC2)C(F)(F)F)c2cc(F)c(C3CC3)cc21 [Example 327, (S)—N-(1-(6-cyclopropyl-5-fluoro-1-neopentyl-1H-indol-3-yl)-2,2,2-trifluoroethyl)cyclopropanesulfonamide] |
| < 500 nM | CN(C)S(=O)(=O)N[C@@H](c1cn(CC(C)(C)C)c2cc(-c3ccccc3Cl)c(F)cc12)C(F)(F)F [Example 330, {[(1S)-1-[6-(2-chlorophenyl)-1-(2,2-dimethylpropyl)-5-fluoro-1H-indol-3-yl]-2,2,2-trifluoroethyl]sulfamoyl}dimethylamine] |
| < 500 nM | CC(C)c1ccc2c([C@H](NS(=O)(=O)C3CC3)C(F)(F)F)cn(CC(C)(C)C)c2c1 [Example 335, (S)—N-(2,2,2-trifluoro-1-(6-isopropyl-1-neopentyl-1H-indol-3-yl)ethyl)cyclopropanesulfonamide] |
| 500 to 3000 nM | CC(C)c1cc2c(cc1F)c([C@H](NS(=O)(=O)C1CC1)C(F)(F)F)cn2CC(C)(C)C [Example 336, (S)—N-(2,2,2-trifluoro-1-(5-fluoro-6-isopropyl-1-neopentyl-1H-indol-3-yl)ethyl)cyclopropanesulfonamide] |
| 500 to 3000 nM | CC(C)c1cc2c(cc1F)c([C@H](NS(=O)(=O)N(C)C)C(F)(F)F)cn2CC(C)(C)C [Example 337, {[(1S)-1-[1-(2,2-dimethylpropyl)-5-fluoro-6-(propan-2-yl)-1H-indol-3-yl]-2,2,2-trifluoroethyl]sulfamoyl}dimethylamine] |
| < 500 nM | CN(C)S(=O)(=O)N[C@@H](c1cn(CC(C)(C)C)c2cc(-c3ccccc3Cl)ccc12)C(F)(F)F [Example 338, {[(1S)-1-[6-(2-chlorophenyl)-1-(2,2-dimethylpropyl)-1H-indol-3-yl]-2,2,2-trifluoroethyl]sulfamoyl}dimethylamine] |
| < 500 nM | CC(C)Cn1cc([C@H](NS(=O)(=O)N(C)C)C(F)(F)F)c2ccc(C(C)C)cc21 [Example 339, dimethyl({[(1S)-2,2,2-trifluoro-1-[1-(2-methylpropyl)-6-(propan-2-yl)-1H-indol-3-yl]ethyl]sulfamoyl})amine] |
| < 500 nM | CC(C)Cn1cc([C@H](NS(=O)(=O)C2CC2)C(F)(F)F)c2ccc(Cl)cc21 [Example 341, (S)—N-(1-(6-chloro-1-isobutyl-1H-indol-3-yl)-2,2,2-trifluoroethyl)cyclopropanesulfonamide] |

Source: patent US20230339886A1 (University of Florida Research Foundation, Incorporated, priority 2020, published 2023)
